{
  "source": "patent US10695406B2",
  "about": "“Modulation of cellular stress using a B-cell oxidative and/or endoplasmic reticulum stress inhibitor and a targeting agent” (THE UNIVERSITY OF QUEENSLAND, priority 2014, dated 2020)",
  "key": {"[1]": {"tested_on": "mice with high fat diet-induced obesity (HFDIO)", "assay": "HFDIO Experiment 1: high fat diet induced obesity, treated last 3 weeks of 16", "assay_type": "in vivo, C57BL/6 male mice", "description": "All mice were housed in sterilized, filter-topped cages in a conventional clean facility. Six to eight week old C57BL/6 male mice were fed ad libitum on a high fat diet containing 46% of available energy as saturated fat, 34% carbohydrate, 20% protein (Speciality feeds, SF04-027). Or on normal chow containing less than 10% saturated fat (GOLDMIX, 126575). Cages of mice were randomly allocated to the experimental groups by random draw. Investigators were not blinded to treatment by there were no subjective assessments made.\nTotal insulin and proinsulin were measured in supernatant from islet cultures or in serum from mice using commercially obtained ELISA kits from MILLIPORE and MERCODIA, respectively. The molar insulin concentration was determined by subtracting the molar proinsulin concentration from molar total insulin, and then the serum proinsulin:insulin ratio was calculated.\nFrom […] of the diet, mice were treated with 20 ng/g i.p. recombinant murine IL-22 twice weekly (R&D SYSTEMS), 3 μg/g anti-IL-23 weekly (ELI-LILLY), 0.1 mg/mouse anti-IL-24 weekly (PROTEIN TECH), or 0.5 mg/mouse irrelevant isotype control antibody, sacrificed and sampled.\nFasted i.p. glucose tolerance tests (2 g/kg glucose) and insulin tolerance tests (0.25 U/kg insulin; Humalog, Lilly) were performed at the times indicated in the Figure Legends.\nPancreatic tissue was fixed in 10% neutral buffered formalin and processed using standard histological techniques. Standard immunohistochemical and immunofluorescent staining methods were used to determine the presence of Grp78, insulin, glucagon, IL-22R1, proinsulin and ATF6-GFP.\nThe area in pixels/mm^2 was determined for Grp78 and insulin (immunofluorescence) and proinsulin (immunohistochemisty) in the core of β-cell rich area of 3-4 islets per mouse (n=6-10 mice) using IMAGEJ software version 1.45s. Live cell imagine in MIN6N8 cells was carries out at 37° C. in 5% CO2 in a chamber using an OLYMPUS XCELLENCE RT microscope."}, "[2]": {"tested_on": "MIN6N8 cells", "assay": "ROS and NO (DHE, DCFDA, Griess assay) in MIN6N8 cells", "assay_type": "cell-based, murine", "conditions": "for IL-23 induced oxidation of dihydroethidium (DHE): 50 ng/mL", "method": "(§1) Activation of ATF6 was assessed as follows: the area in pixels per square millimeter co-stained ATF6 and DAPI (blue and green), and total ATF6 staining (green) was determined in 5 fields of view for each section (n=6 for each condition) using IMAGEJ software version 1.45s. Data are presented as the percentage of ATF6 and DAPI co-fluorescence to the total ATF6 fluorescence. Phosphorylation of Ser-51 of eiF2 α was determined by an AlphaScreen assay as per the manufacturer's instructions (PERKIN-ELMER). The Griess reagent method was performed according to the manufacturer's instructions (MOLECULAR PROBES) to assess the intracellular levels of nitric oxide. 5-(and -6-)-carboxy-2,7-dichlorofluorescein diacetate (DCFDA) assay was used to determine the intracellular levels of H2O2 as previously described (Sakon et al., 2003). Cells were treated with glucose or recombinant cytokines at the concentrations indicated in the figure legends, or with 5 μM thapsigargin (SIGMA-ALDRICH) or 10 μg/mL tunicamycin (SIGMA-ALDRICH) or 0.1-0.5 mM Palmitate (SIGMA-ALDRICH) for the times indicated in the legends. ROS was […] using the dihydroethidium (DHE) fluorescent cell-permeable probe (SIGMA-ALDRICH). MIN6N8 cells plated at 2×10^6/mL were incubated with 3 μM DHE and subsequently treated with DMSO (control), 50 ng/mL IL-23 for 30 minutes±[…] IL-22 at the same time or 30 minutes prior to IL-23.\nTo determine whether IL-22 was sufficient to prevent the increase in oxidative stress caused by known stressors, for example dihydroethidium (DHE), MIN6N8 cells were exposed to 50 ng/mL IL-23 for 30 minutes±50 ng/mL IL-22 at the same time, or 30 minutes prior to the IL-23 treatment. Superoxide generation was measured using DHE, which fluoresces red and binds DNA after oxidation. Time-lapse imaging (3 frames/min for 30 minutes) was utilized to determine the formation of superoxide (DHE-conversion/fluorescence) in cells after treatment. DAPI fluorescence was captured to visualize nuclei.\nThe concentration of ROS and NO in MIN6N8 cells treated with 16.6 mM glucose (high glucose), 10 μM H2O2, 0.5 mM palmitic acid or 50 ng/mL cytokines±50 ng/mL IL-22 either at the same time, or 30 minutes prior to the stressor treatment."}, "[3]": {"tested_on": "MIN6N8 murine β-cells", "assay": "ER stress (ERAI reporter of Xbp1-splicing / Xbp1 splicing) in MIN6N8 β-cells", "assay_type": "cell-based", "method": "MIN6N8 cells are maintained in line with standard protocols. Cells are transfected with either the ERAI reporter plasmid (F-XBP1ΔDBD-Venus), or the ATF6-GFP plasmid (ADGENE), using LIPFECTAMINE 2000 according to the manufacturer's instructions.\nOn induction of ER stress, splicing of […] mRNA by IRE1a results in the translation of Venus, but not an active form of XBP1. Fluorescence was measured (excitation: 485 nm; emission: 520 nm) using the POLARstar Omega plate reader and cells were treated 48 h after transfection. The results are normalized with Gapdh expression as fold of vehicle-treated control (Con) cells.\nas §1\nTo inhibit transcription factors the following specific inhibitors (and concentrations) were used:\nMIN6N8 cells were exposed to a panel of cytokines to determine the effect of each cytokine on ER stress. ER stress was measured using the above-described method. Specifically, the cells were exposed to either a 24 hour treatment of any one of […] glucose (hi glucose), 10 μM H2O2, 0.5 mM palmitic acid or 50 ng/mL cytokines; or a 6 hour treatment with 10 μg/mL tunicamycin or 5 μM thapsigargin.\nExperiments to assess ER and/or oxidative stress, and methods of qRT-PCT and/or quantifying gene expression were performed as described for Example 1. Xbp1 splicing is assessed by qRT-PCR, with normalization versus Gapdh, and expression presented as fold of vehicle-treated control cells."}, "[4]": {"conditions": "HFDIO Experiment 1, 16 weeks on HFD"}, "[5]": {"conditions": "HFDIO Experiment 1, 16 weeks on NCD"}},
  "data": [
    {"substance": "IL-22: interleukin-22; recombinant murine IL-22 (R&D SYSTEMS) in the mouse experiments", "values": [
      {"measurement": "body weight during treatment", "setting": "[1]; HFD", "result": "progressively lost weight during treatment without changing food consumption"},
      {"measurement": "hepatic Hspa5 mRNA", "setting": "[1]; HFD, after 3 weeks treatment", "result": "decreased substantially"},
      {"measurement": "fasted serum proinsulin:insulin ratio", "setting": "[1]; HFD, end of treatment", "result": "decreased the fasted serum proinsulin:insulin ratio"},
      {"measurement": "reduction of serum proinsulin", "setting": "[1]; HFD, fasted, end of treatment", "result": 92, "unit": "%"},
      {"measurement": "decrease of islet proinsulin", "setting": "[1]; HFD, immunostaining", "result": 64, "unit": "%"},
      {"measurement": "reduction of Grp78 in the β-cell region of islets", "setting": "[1]; HFD, immunostaining", "result": 75, "unit": "%"},
      {"measurement": "β-cell insulin stores", "setting": "[1]; HFD, immunostaining", "result": "returned to levels in non-obese mice"},
      {"measurement": "reduction of the increase in IPGTT area under the curve (AUC glucose)", "setting": "[1]; HFD, two weeks of treatment", "result": 82, "unit": "%"},
      {"measurement": "Body weight (% original)", "setting": "[1]; [4]", "result": "129 ± 9", "unit": "% original"},
      {"measurement": "Fasting blood glucose", "setting": "[1]; [4]", "result": "8.8 ± 0.9", "unit": "mmol/L"},
      {"measurement": "Fasting serum insulin concentration", "setting": "[1]; [4]", "result": "1.1 ± 0.5", "unit": "ng/mL"},
      {"measurement": "Fasting serum proinsulin concentration", "setting": "[1]; [4]", "result": "9.5 ± 3.8", "unit": "pmol/L"},
      {"measurement": "Body weight (% original)", "setting": "[1]; [5]", "result": "118 ± 3", "unit": "% original"},
      {"measurement": "Fasting blood glucose", "setting": "[1]; [5]", "result": "8.9 ± 0.8", "unit": "mmol/L"},
      {"measurement": "Fasting serum insulin concentration", "setting": "[1]; [5]", "result": "0.5 ± 0.1", "unit": "ng/mL"},
      {"measurement": "Fasting serum proinsulin concentration", "setting": "[1]; [5]", "result": "Not detectable"},
      {"measurement": "IL-23 induced oxidation of dihydroethidium (DHE)", "setting": "[2]; 30-minute pre-exposure", "result": "completely prevented DHE oxidation"},
      {"measurement": "IL-23 induced oxidation of dihydroethidium (DHE)", "setting": "[2]; concomitant exposure", "result": "reduced the degree of oxidation and the number of cells affected"},
      {"measurement": "basal NO production", "setting": "[2]; unstressed cells", "result": "decreased basal NO production"},
      {"measurement": "production/accumulation of ROS and NO", "setting": "[2]; β-cells exposed to inflammatory cytokines, FFA, tunicamycin or H2O2", "result": "represses the production/accumulation of ROS and NO"},
      {"measurement": "UPR activation when ER stress is induced with thapsigargin", "setting": "[3]; 5 μM thapsigargin ± IL-22, 6 hours", "result": "increases UPR activation"},
      {"measurement": "ER stress induced with palmitic acid", "setting": "[3]; 0.1-0.5 mM palmitic acid ± IL-22, 24 hours", "result": "inhibits ER stress"},
      {"measurement": "lowest concentration with efficacy as suppressor of ER stress", "setting": "[3]; MIN6 β-cells", "result": "around 5 ng/mL"},
      {"measurement": "UPR activation by the cytokine alone", "setting": "[3]; no stressor", "result": "does not appear to activate the UPR"},
      {"measurement": "inhibition of ER stress initiated by cytokines or tunicamycin", "setting": "[3]; pair-wise combinations of cytokines", "result": "inhibit ER stress"}
    ]}
  ]
}
